Experimental data as given in patent publication US20240083857A1, “2-Methyl-Quinazolines” (Bayer Pharma Aktiengesellschaft, priority 2017, published 2024).

Columns and labels:
[1] = molecular target: human SOS1 (nucleotide exchange of K-Ras^G12C) (Homo sapiens, UniProt Q07889); test: Biochemical assay 2: K-Ras^G12C activation assay by hSOS1 at high GTP concentration (HTRF); details: high GTP; read-out: Assay 2 (KRAS-Activation by SOS high GTP) activity expressed as IC50
[2] = molecular target: K-Ras^G12C : hSOS1 interaction (Homo sapiens, UniProt Q07889); test: Biochemical assay 1: K-Ras^G12C interaction assay with hSOS1 (HTRF); type: binding; details: read-out: Assay 1 (KRAS-SOS Interaction) activity expressed as IC50

Row | SMILES | IC50 [1] [nM] | IC50 [2] [nM]
1 | COc1cc2nc(C)nc(N[C@H](C)c3cccc(-c4cn[nH]c4)c3)c2cc1OC(C)C [Example 353, 7-methoxy-2-methyl-6-(propan-2-yloxy)-N-{(1R)-1-[3-(1H-pyrazol-4-yl)phenyl]ethyl}quinazolin-4-amine] | 420 | 360
2 | COc1cc2nc(C)nc(N[C@H](C)c3cccc(-c4cn[nH]c4)c3)c2cc1OCC1COC1 [Example 354, 7-methoxy-2-methyl-6-(oxetan-3-ylmethoxy)-N-{(1R)-1-[3-(1H-pyrazol-4-yl)phenyl]ethyl}quinazolin-4-amine] | 516 | 313
3 | CCOc1cc2c(N[C@H](C)c3cccc(-c4cn[nH]c4)c3)nc(C)nc2cc1OC [Example 355, 6-Ethoxy-7-methoxy-2-methyl-N-{(1R)-1-[3-(1H-pyrazol-4-yl)phenyl]ethyl}-quinazolin-4-amine] | 571 | 485
4 | CCOc1cc2c(N[C@H](C)c3cccc(-c4cnn(CC)c4)c3)nc(C)nc2cc1OC [Example 356, 6-ethoxy-N-{(1R)-1-[3-(1-ethyl-1H-pyrazol-4-yl)phenyl]ethyl}-7-methoxy-2-methylquinazolin-4-amine] | 777 | 655
5 | COc1cc2nc(C)nc(NC(C)c3ccc(-c4ccccc4-c4cn[nH]c4)s3)c2cc1OC (centres unmarked) [Example 361, 6,7-dimethoxy-2-methyl-N-[1-{5-[2-(1H-pyrazol-4-yl)phenyl]thiophen-2-yl}ethyl]-quinazolin-4-amine] | 4050 | 2460
6 | Cc1nc(N[C@H](C)c2cccc(Cl)c2)c2cc(Br)ccc2n1 [Example 363, 6-bromo-N-[(1R)-1-(3-chlorophenyl)ethyl]-2-methylquinazolin-4-amine] | 11300 | 12400
7 | COc1cc2nc(C)nc(NC(C)c3ccc(-c4ccccc4CNC4CCCC4)s3)c2cc1OC (centres unmarked) [Example 364, N-[1-(5-{2-[(cyclopentylamino)methyl]phenyl}thiophen-2-yl)ethyl]-6,7-dimethoxy-2-methylquinazolin-4-amine] | 158 | 129
8 | COc1cc2nc(C)nc(NC(C)c3ccc(-c4ccccc4CNCc4ccccc4)s3)c2cc1OC (centres unmarked) [Example 365, N-[1-(5-{2-[(benzylamino)methyl]phenyl}thiophen-2-yl)ethyl]-6,7-dimethoxy-2-methylquinazolin-4-amine] | 299 | 469
9 | CCCCNCc1ccccc1-c1ccc(C(C)Nc2nc(C)nc3cc(OC)c(OC)cc23)s1 (centres unmarked) [Example 366, N-[1-(5-{2-[(butylamino)methyl]phenyl}thiophen-2-yl)ethyl]-6,7-dimethoxy-2-methylquinazolin-4-amine] | 96.9 | 97.6
10 | CCNCc1ccccc1-c1ccc(C(C)Nc2nc(C)nc3cc(OC)c(OC)cc23)s1 (centres unmarked) [Example 367, N-[1-(5-{2-[(ethylamino)methyl]phenyl}thiophen-2-yl)ethyl]-6,7-dimethoxy-2-methylquinazolin-4-amine] | 61.3 | 71.6
